Converted amounts (≈) assume the structure as drawn.
Assays:
[1] = system: methicillin-sensitive Staphylococcus aureus; assay: MIC by broth micro-dilution (CLSI), methicillin-sensitive S. aureus; type: cell-based; settings: Staphylococcus aureus, ATCC 29213 / MSSA, MSSA S. aureus ATCC29213; read-out: MIC
[2] = system: carbapenem sensitive Escherichia coli; assay: MIC by broth micro-dilution (CLSI), carbapenem sensitive E. coli; type: cell-based; settings: Escherichia coli, ATCC25922, ESBL −ve E. coli ATCC25922; read-out: MIC
[3] = system: extended spectrum β lactamase (ESBL) SHV18 producing Klebsiella pneumoniae; assay: MIC by broth micro-dilution (CLSI), ESBL SHV18 producing K. pneumoniae; type: cell-based; settings: Klebsiella pneumoniae, ATCC700603, 22 h, ESBL +ve (SHV-18) K. pneumoniae ATCC700603; read-out: MIC
[4] = system: carbapenemase producing K. pneumoniae; assay: MIC by broth micro-dilution (CLSI), carbapenemase producing K. pneumoniae; type: cell-based, Klebsiella pneumoniae; settings: Klebsiella pneumoniae, ATCCBAA1705, KPC-2 K. pneumoniae ATCC BAA-1705; read-out: MIC
[5] = system: carbapenem sensitive Pseudomonas aeruginosa; assay: MIC by broth micro-dilution (CLSI), carbapenem sensitive P. aeruginosa; type: cell-based; settings: Pseudomonas aeruginosa, ATCC27853, Meropenem susceptible P. aeruginosa ATCC27853; read-out: MIC

Compound	MIC [1] [µg/mL]	MIC [2] [µg/mL]	MIC [3] [µg/mL]	MIC [4] [µg/mL]	MIC [5] [µg/mL]
C[C@@H](NC(=O)CCN)[C@H]1C(=O)N2C(C(=O)O)=C(S[C@@H]3CN[C@H](C(=O)N(C)C)C3)[C@H](C)[C@H]12 [Example 165]	64 (≈ 141 µM)	2 (≈ 4.41 µM)	4 (≈ 8.82 µM)	2 (≈ 4.41 µM)	32 (≈ 70.6 µM)
CNCCC(=O)N[C@H](C)[C@H]1C(=O)N2C(C(=O)O)=C(S[C@@H]3CN[C@H](C(=O)N(C)C)C3)[C@H](C)[C@H]12 [Example 166]	64 (≈ 137 µM)	4 (≈ 8.55 µM)	8 (≈ 17.1 µM)	8 (≈ 17.1 µM)	32 (≈ 68.4 µM)
C[C@H]([C@H]1C(=O)N2C(C(=O)O)=C(SC3CN[C@H](C(=O)N4CC[C@@H](N)C4)C3)[C@H](C)[C@H]12)n1cc(CO)nn1 (some centres unmarked) [Example 167]	2 (≈ 3.96 µM)	4 (≈ 7.91 µM)	4 (≈ 7.91 µM)	4 (≈ 7.91 µM)	32 (≈ 63.3 µM)
CNCC(=O)N[C@H](C)[C@H]1C(=O)N2C(C(=O)O)=C(S[C@@H]3CN[C@H](CNS(N)(=O)=O)C3)[C@H](C)[C@H]12 [Example 169]	8 (≈ 16.3 µM)	1 (≈ 2.04 µM)	16 (≈ 32.6 µM)	2 (≈ 4.08 µM)	4 (≈ 8.15 µM)
C[C@@H](NC(=O)C(F)F)[C@H]1C(=O)N2C(C(=O)O)=C(S[C@@H]3CN[C@H](C(=O)N4CC[C@H](n5cc(CN)nn5)C4)C3)[C@H](C)[C@H]12 [Example 176]	2 (≈ 3.43 µM)	1 (≈ 1.72 µM)	4 (≈ 6.87 µM)	8 (≈ 13.7 µM)	8 (≈ 13.7 µM)
C[C@H]([C@H]1C(=O)N2C(C(=O)O)=C(SC3CN[C@H](C(=O)N(C)C)C3)[C@H](C)[C@H]12)n1cc(CN)nn1 (some centres unmarked) [Example 177]	8 (≈ 17.3 µM)	2 (≈ 4.31 µM)	2 (≈ 4.31 µM)	2 (≈ 4.31 µM)	32 (≈ 69 µM)
CNCC(=O)N[C@H](C)[C@H]1C(=O)N2C(C(=O)O)=C(S[C@@H]3CN[C@H](C(=O)N4CC[C@H](n5cc(CN)nn5)C4)C3)[C@H](C)[C@H]12 [Example 178]	32 (≈ 55.6 µM)	2 (≈ 3.47 µM)	4 (≈ 6.95 µM)	4 (≈ 6.95 µM)	4 (≈ 6.95 µM)
CNCC(=O)N[C@H](C)[C@H]1C(=O)N2C(C(=O)O)=C(S[C@@H]3CN[C@H](C(=O)N4CC[C@@H](NC)C4)C3)[C@H](C)[C@H]12 [Example 179]	128 (≈ 252 µM)	2 (≈ 3.93 µM)	16 (≈ 31.5 µM)	8 (≈ 15.7 µM)	16 (≈ 31.5 µM)
C[C@@H](NC(=O)CN(C)C)[C@H]1C(=O)N2C(C(=O)O)=C(S[C@@H]3CN[C@H](C(=O)N4CC[C@@H](N)C4)C3)[C@H](C)[C@H]12 [Example 180]	128 (≈ 252 µM)	4 (≈ 7.86 µM)	32 (≈ 62.9 µM)	32 (≈ 62.9 µM)	16 (≈ 31.5 µM)
CNCC(=O)N[C@H](C)[C@H]1C(=O)N2C(C(=O)O)=C(S[C@@H]3CN[C@H](Cn4cc(CN)nn4)C3)[C@H](C)[C@H]12 [Example 181]	> 128	8 (≈ 16.2 µM)	> 128	64 (≈ 130 µM)	128 (≈ 260 µM)
C[C@@H](NC(=O)C(F)F)[C@H]1C(=O)N2C(C(=O)O)=C(S[C@@H]3CN[C@H](C(=O)N4C[C@@H](N)C[C@H]4CN)C3)[C@H](C)[C@H]12 [Example 183]	8 (≈ 15.1 µM)	2 (≈ 3.77 µM)	32 (≈ 60.3 µM)	16 (≈ 30.2 µM)	64 (≈ 121 µM)
C[C@@H](NC(=O)C(F)F)[C@H]1C(=O)N2C(C(=O)O)=C(S[C@@H]3CN[C@H](C(=O)N4CC[C@H](NC=N)C4)C3)[C@H](C)[C@H]12 [Example 184]	2 (≈ 3.78 µM)	0.5 (≈ 0.946 µM)	4 (≈ 7.57 µM)	8 (≈ 15.1 µM)	4 (≈ 7.57 µM)
CNC[C@@H]1C[C@H](N)CN1C(=O)[C@@H]1C[C@H](SC2=C(C(=O)O)N3C(=O)[C@H]([C@@H](C)NC(=O)C(F)F)[C@H]3[C@H]2C)CN1 [Example 185]	2 (≈ 3.67 µM)	2 (≈ 3.67 µM)	64 (≈ 118 µM)	16 (≈ 29.4 µM)	64 (≈ 118 µM)
C[C@@H](NC(=O)C(F)F)[C@H]1C(=O)N2C(C(=O)O)=C(S[C@@H]3CN[C@H](C(=O)N4C[C@@H](N)C[C@H]4CO)C3)[C@H](C)[C@H]12 [Example 186]	4 (≈ 7.52 µM)	0.5 (≈ 0.941 µM)	4 (≈ 7.52 µM)	4 (≈ 7.52 µM)	8 (≈ 15 µM)
C[C@@H](Oc1ccon1)[C@H]1C(=O)N2C(C(=O)O)=C(S[C@@H]3CN[C@H](C(=O)N(C)C)C3)[C@H](C)[C@H]12 [Example 187]	4 (≈ 8.88 µM)	2 (≈ 4.44 µM)	8 (≈ 17.8 µM)	64 (≈ 142 µM)	128 (≈ 284 µM)

Further lines, results first:

MIC [1] [µg/mL]	MIC [2] [µg/mL]	MIC [3] [µg/mL]	MIC [4] [µg/mL]	MIC [5] [µg/mL]	Compound
2 (≈ 3.68 µM)	1 (≈ 1.84 µM)	8 (≈ 14.7 µM)	4 (≈ 7.36 µM)	4 (≈ 7.36 µM)	C[C@@H](NC(=O)C(F)F)[C@H]1C(=O)N2C(C(=O)O)=C(S[C@@H]3CN[C@H](C(=O)N4CCN(C(=N)N)CC4)C3)[C@H](C)[C@H]12 [Example 157]
2 (≈ 3.49 µM)	1 (≈ 1.75 µM)	4 (≈ 6.99 µM)	4 (≈ 6.99 µM)	8 (≈ 14 µM)	CNCC(=O)N1CCN(C(=O)[C@@H]2C[C@H](SC3=C(C(=O)O)N4C(=O)[C@H]([C@@H](C)NC(=O)C(F)F)[C@H]4[C@H]3C)CN2)CC1 [Example 158]
2 (≈ 3.58 µM)	1 (≈ 1.79 µM)	4 (≈ 7.16 µM)	4 (≈ 7.16 µM)	8 (≈ 14.3 µM)	C[C@@H](NC(=O)C(F)F)[C@H]1C(=O)N2C(C(=O)O)=C(S[C@@H]3CN[C@H](C(=O)N4CCN(C(=O)CN)CC4)C3)[C@H](C)[C@H]12 [Example 159]
4 (≈ 7.16 µM)	1 (≈ 1.79 µM)	8 (≈ 14.3 µM)	8 (≈ 14.3 µM)	16 (≈ 28.6 µM)	C[C@@H](NC(=O)C(F)F)[C@H]1C(=O)N2C(C(=O)O)=C(S[C@@H]3CN[C@H](C(=O)N4CC[C@@H](NC(=O)CN)C4)C3)[C@H](C)[C@H]12 [Example 160]
0.5 (≈ 0.97 µM)	0.5 (≈ 0.97 µM)	8 (≈ 15.5 µM)	4 (≈ 7.76 µM)	8 (≈ 15.5 µM)	C[C@@H](NC(=O)C(F)F)[C@H]1C(=O)N2C(C(=O)O)=C(S[C@@H]3CN[C@H](C(=O)N4CCNC[C@@H]4C)C3)[C@H](C)[C@H]12 [Example 161]
1 (≈ 1.94 µM)	0.5 (≈ 0.97 µM)	4 (≈ 7.76 µM)	4 (≈ 7.76 µM)	16 (≈ 31 µM)	C[C@@H](NC(=O)C(F)F)[C@H]1C(=O)N2C(C(=O)O)=C(S[C@@H]3CN[C@H](C(=O)N4CCCNCC4)C3)[C@H](C)[C@H]12 [Example 162]
1 (≈ 1.99 µM)	1 (≈ 1.99 µM)	4 (≈ 7.94 µM)	4 (≈ 7.94 µM)	8 (≈ 15.9 µM)	CNCCN(C)C(=O)[C@@H]1C[C@H](SC2=C(C(=O)O)N3C(=O)[C@H]([C@@H](C)NC(=O)C(F)F)[C@H]3[C@H]2C)CN1 [Example 163]
1 (≈ 1.93 µM)	0.25 (≈ 0.483 µM)	1 (≈ 1.93 µM)	4 (≈ 7.73 µM)	32 (≈ 61.8 µM)	C[C@@H](NC(=O)C(F)F)[C@H]1C(=O)N2C(C(=O)O)=C(S[C@@H]3CN[C@H](C(=O)N4CC[C@@H](ON)C4)C3)[C@H](C)[C@H]12 [Example 164]
16 (≈ 32.3 µM)	1 (≈ 2.02 µM)	2 (≈ 4.04 µM)	2 (≈ 4.04 µM)	2 (≈ 4.04 µM)	CNCC(=O)N[C@H](C)[C@H]1C(=O)N2C(C(=O)O)=C(S[C@@H]3CN[C@H](C(=O)N4CCNCC4)C3)[C@H](C)[C@H]12 [Example 168]
2 (≈ 3.69 µM)	1 (≈ 1.85 µM)	4 (≈ 7.39 µM)	8 (≈ 14.8 µM)	32 (≈ 59.1 µM)	C[C@@H](NC(=O)C(F)F)[C@H]1C(=O)N2C(C(=O)O)=C(S[C@@H]3CN[C@H](C(=O)N4CC[C@H](NC5CC5)C4)C3)[C@H](C)[C@H]12 [Example 170]
2 (≈ 3.78 µM)	4 (≈ 7.57 µM)	128 (≈ 242 µM)	128 (≈ 242 µM)	> 128	CNCCN(CC#N)C(=O)[C@@H]1C[C@H](SC2=C(C(=O)O)N3C(=O)[C@H]([C@@H](C)NC(=O)C(F)F)[C@H]3[C@H]2C)CN1 [Example 171]
4 (≈ 6.82 µM)	1 (≈ 1.7 µM)	8 (≈ 13.6 µM)	8 (≈ 13.6 µM)	64 (≈ 109 µM)	C[C@@H](NC(=O)C(F)F)[C@H]1C(=O)N2C(C(=O)O)=C(S[C@@H]3CN[C@H](C(=O)N(C)[C@@H]4CN[C@H](C(=O)N(C)C)C4)C3)[C@H](C)[C@H]12 [Example 172]
4 (≈ 6.82 µM)	2 (≈ 3.41 µM)	16 (≈ 27.3 µM)	8 (≈ 13.6 µM)	16 (≈ 27.3 µM)	C[C@@H](NC(=O)C(F)F)[C@H]1C(=O)N2C(C(=O)O)=C(S[C@@H]3CN[C@H](C(=O)N(C)CCC(=O)N4CC[C@H](N)C4)C3)[C@H](C)[C@H]12 [Example 173]
4 (≈ 6.66 µM)	2 (≈ 3.33 µM)	16 (≈ 26.6 µM)	8 (≈ 13.3 µM)	32 (≈ 53.3 µM)	C[C@@H](NC(=O)C(F)F)[C@H]1C(=O)N2C(C(=O)O)=C(S[C@@H]3CN[C@H](C(=O)N(C)CCC(=O)N4CCCNCC4)C3)[C@H](C)[C@H]12 [Example 174]
2 (≈ 3.7 µM)	1 (≈ 1.85 µM)	2 (≈ 3.7 µM)	4 (≈ 7.4 µM)	16 (≈ 29.6 µM)	C[C@@H](NC(=O)C(F)F)[C@H]1C(=O)N2C(C(=O)O)=C(S[C@@H]3CN[C@H](C(=O)N4CC[C@H](NCC#N)C4)C3)[C@H](C)[C@H]12 [Example 175]
128 (≈ 252 µM)	8 (≈ 15.7 µM)	16 (≈ 31.5 µM)	16 (≈ 31.5 µM)	8 (≈ 15.7 µM)	C[C@@H](NC(=O)CN(C)C)[C@H]1C(=O)N2C(C(=O)O)=C(S[C@@H]3CN[C@H](C(=O)N4CCNCC4)C3)[C@H](C)[C@H]12 [Example 182]

— patent US11180504B2 (ORCHID PHARMA LTD., priority 2016, dated 2021)
